# Reference: article PMC4282596 (Psychopharmacology, 2014)
# Target: T1, 5-HT2C receptor (Homo sapiens, UniProt P28335)
# T1 sequence (P28335 33-458): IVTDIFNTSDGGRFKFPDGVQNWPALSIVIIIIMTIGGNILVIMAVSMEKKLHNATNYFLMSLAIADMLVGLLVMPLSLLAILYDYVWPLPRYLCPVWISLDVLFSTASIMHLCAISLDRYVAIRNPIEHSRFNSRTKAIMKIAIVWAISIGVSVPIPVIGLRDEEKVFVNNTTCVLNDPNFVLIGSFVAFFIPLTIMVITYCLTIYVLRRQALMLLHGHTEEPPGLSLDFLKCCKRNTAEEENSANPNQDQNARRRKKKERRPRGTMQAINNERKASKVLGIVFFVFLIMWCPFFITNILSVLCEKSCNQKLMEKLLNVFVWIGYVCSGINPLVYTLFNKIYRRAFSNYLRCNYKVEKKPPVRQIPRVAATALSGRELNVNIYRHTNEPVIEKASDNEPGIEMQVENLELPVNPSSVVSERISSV
# Assay: […]DOI radioligand competition binding on HEK-h5HT2C cell homogenate
smiles,measurement,value
CC(C)N(CCc1c[nH]c2ccccc12)C(C)C [DiPT],Ki,290 ± 110 nM
